In brackets after ≈: the same amount, converted by molar mass.

One test has as its system Escherichia coli ATCC 25922. Description: Minimal Inhibitory Concentration (MIC) determination, broth microdilution (CLSI M07-A10). It counts as cell-based. To be noted: Escherichia coli, ATCC25922, read-out: Escherichia coli growth inhibition MIC, strain Escherichia coli ATCC 25922, 18-24 hours at 35±2° C., lowest concentration for complete growth inhibition (no visible growth). The method in brief:
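MIC read visually as the lowest concentration with complete growth inhibition after 18-24 h at 35±2° C, ambient air. Method follows CLSI M07-A10 broth microdilution, two-fold compound series, inoculum standardized to 0.5 McFarland then diluted 1:200.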
For orientation: In broth dilution the organism is exposed to a series of concentrations in liquid medium.
With `C[C@H](N)Cn1nc2c(F)c3c(c(F)c2n1)CC(CN1CCC2(CC1)CN(c1cnc4c(n1)NC(=O)CO4)C(=O)O2)C3` [Example 123, 6-[8-[[2-[(2S)-2-aminopropyl]-4,8-difluoro-6,7-dihydro-5H-cyclopenta[f]benzotriazol-6-yl]methyl]-2-oxo-1-oxa-3,8-diazaspiro[4.5]decan-3-yl]-4H-pyrazino[2,3-b][1,4]oxazin-3-one; formic acid], the MIC was 0.125 µg/mL (≈ 0.219 µM).

Staying with this test, now noted: Escherichia coli, ATCC25922, strain Escherichia coli ATCC 25922, 18-24 hours at 35±2° C., lowest concentration for complete growth inhibition (no visible growth), read-out: Escherichia coli growth inhibition MIC.
In the case of `NCCn1nnc2c3c(c(F)cc21)CC(CN1CCC2(CC1)CN(c1cnc4c(n1)NC(=O)CO4)C(=O)O2)C3` (stereo not drawn) [Example 85, 6-[8-[[3-(2-aminoethyl)-5-fluoro-7,8-dihydro-6H-cyclopenta[e]benzotriazol-7-yl]methyl]-2-keto-1-oxa-3,8-diazaspiro[4.5]decan-3-yl]-4H-pyrazino[2,3-b][1,4]oxazin-3-one], the MIC was determined as 0.25 µg/mL (≈ 0.465 µM).
`C[C@@H](N)c1nc2cc3c(c(F)c2o1)CC(CN1CCC2(CC1)CN(c1cnc4c(n1)NC(=O)CO4)C(=O)O2)C3` (stereo partly drawn) [Example 90, 6-[8-[[2-[(1R)-1-aminoethyl]-8-fluoro-6,7-dihydro-5H-cyclopenta[f][1,3]benzoxazol-6-yl]methyl]-2-oxo-1-oxa-,38-diazaspiro[4.5]decan-3-yl]-4H-pyrazino[2,3-b][1,4]oxazin-3-one]: the MIC came out at 0.125 µg/mL (≈ 0.233 µM).
On to `CNCc1nc2cc(F)c3c(c2[nH]1)CC(CN1CCC2(CC1)CN(c1cnc4c(n1)NC(=O)CO4)C(=O)O2)C3` (stereo not drawn) [Example 92, 6-[8-[[5-fluoro-2-(methylaminomethyl)-1,6,7,8-tetrahydrocyclopenta[e]benzimidazol-7-yl]methyl]-2-oxo-1-oxa-3,8-diazaspiro[4.5]decan-3-yl]-4H-pyrazino[2,3-b][1,4]oxazin-3-one], for which the MIC was found to be 0.125 µg/mL (≈ 0.233 µM).
Turning to `CNCc1nc2c(F)c3c(cc2o1)CC(CN1CCC2(CC1)CN(c1cnc4c(n1)NC(=O)CO4)C(=O)O2)C3` (stereo not drawn) [Example 93, 6-[8-[[4-fluoro-2-(methylaminomethyl)-6,7-dihydro-5H-cyclopenta[f][1,3]benzoxazol-6-yl]methyl]-2-oxo-1-oxa-3,8-diazaspiro[4.5]decan-3-yl]-4H-pyrazino[2,3-b][1,4]oxazin-3-one], the MIC is 0.125 µg/mL (≈ 0.233 µM).
Turning to `CNCc1nc2c3c(c(F)cc2o1)CC(CN1CCC2(CC1)CN(c1cnc4c(n1)NC(=O)CO4)C(=O)O2)C3` (stereo not drawn) [Example 96, 6-[8-[[5-fluoro-2-(methylaminomethyl)-7,8-dihydro-6H-cyclopenta[e][1,3]benzoxazol-7-yl]methyl]-2-oxo-1-oxa-3,8-diazaspiro[4.5]decan-3-yl]-4H-pyrazino[2,3-b][1,4]oxazin-3-one], the MIC worked out at 0.125 µg/mL (≈ 0.233 µM).
Turning to `C[C@H](N)c1nc2cc3c(c(F)c2o1)CC(CN1CCC2(CC1)CN(c1cnc4c(n1)NC(=O)CO4)C(=O)O2)C3` (stereo partly drawn) [Example 97, 6-[8-[[2-[(1S)-1-aminoethyl]-8-fluoro-6,7-dihydro-5H-cyclopenta[f][1,3]benzoxazol-6-yl]methyl]-2-oxo-1-oxa-3,8-diazaspiro[4.5]decan-3-yl]-4H-pyrazino[2,3-b][1,4]oxazin-3-one], the MIC is 0.125 µg/mL (≈ 0.233 µM).
As for `CNCCn1nc2c(F)c3c(c(F)c2n1)CC(CN1CCC2(CC1)CN(c1cnc4c(n1)NC(=O)CO4)C(=O)O2)C3.O=CO` [Example 117, 6-[8-[[4,8-difluoro-2-[2-(methylamino)ethyl]-6,7-dihydro-5H-cyclopenta[f]benzotriazol-6-yl]methyl]-2-oxo-1-oxa-3,8-diazaspiro[4.5]decan-3-yl]-4H-pyrazino[2,3-b][1,4]oxazin-3-one; formic acid], the MIC was found to be 0.25 µg/mL.
Turning to `O=C1COc2ncc(N3CC4(CCN(CC5Cc6c(c(F)c7nn(CCNC8CC8)nc7c6F)C5)CC4)OC3=O)nc2N1` [Example 122], the MIC amounted to 0.5 µg/mL (≈ 0.839 µM).
As for `C[C@H](N)Cn1cnc2c(F)c3c(c(F)c21)CC(CN1CCC2(CC1)CN(c1cnc4c(n1)NC(=O)CO4)C(=O)O2)C3` (stereo partly drawn) [Example 128, 6-[8-[[1-[(2S)-2-aminopropyl]-4,8-difluoro-6,7-dihydro-5H-cyclopenta[f]benzimidazol-6-yl]methyl]-2-oxo-1-oxa-3,8-diazaspiro[4.5]decan-3-yl]-4H-pyrazino[2,3-b][1,4]oxazin-3-one], the MIC worked out at 0.25 µg/mL (≈ 0.44 µM).
As for `N[C@H]1COC[C@@H]1c1nc2cc3c(c(F)c2o1)CC(CN1CCC2(CC1)CN(c1cnc4c(n1)NC(=O)CO4)C(=O)O2)C3` (stereo partly drawn) [Example 138, 6-[8-[[2-[(3R,4R)-4-Aminotetrahydrofuran-3-yl]-8-fluoro-6,7-dihydro-5H-cyclopenta[f][1,3]benzoxazol-6-yl]methyl]-2-oxo-1-oxa-3,8-diazaspiro[4.5]decan-3-yl]-4H-pyrazino[2,3-b][1,4]oxazin-3-one], the MIC was 1 µg/mL (≈ 1.73 µM).
For the compound `N[C@@H](CO)c1nc2cc3c(c(F)c2o1)CC(CN1CCC2(CC1)CN(c1cnc4c(n1)NC(=O)CO4)C(=O)O2)C3` (stereo partly drawn) [Example 143, 6-[8-[[2-[(1S)-1-Amino-2-hydroxy-ethyl]-8-fluoro-6,7-dihydro-5H-cyclopenta[f][1,3]benzoxazol-6-yl]methyl]-2-oxo-1-oxa-3,8-diazaspiro[4.5]decan-3-yl]-4H-pyrazino[2,3-b][1,4]oxazin-3-one], the MIC came to 0.25 µg/mL (≈ 0.452 µM).
With `O=C1COc2ccc(N3CC4(CCN(CC5Cc6cc7nc([C@@H]8C[C@@H](O)CN8)oc7c(F)c6C5)CC4)OC3=O)nc2N1` (stereo partly drawn) [Example 147, 6-[8-[[8-Fluoro-2-[(2S,4R)-4-hydroxypyrrolidin-2-yl]-6,7-dihydro-5H-cyclopenta[f][1,3]benzoxazol-6-yl]methyl]-2-oxo-1-oxa-3,8-diazaspiro[4.5]decan-3-yl]-4H-pyrido[3,2-b][1,4]oxazin-3-one], the MIC was 0.5 µg/mL (≈ 0.864 µM).

The test is the same for the next values; noted with them: strain Escherichia coli ATCC 25922, 18-24 hours at 35±2° C., lowest concentration for complete growth inhibition (no visible growth).
With `O=C1COc2ncc(N3CC4(CCN(CC5Cc6cc7nc([C@@H]8CCN8)oc7c(F)c6C5)CC4)OC3=O)nc2N1` (stereo partly drawn) [Example 107, 6-[8-[[2-[(2S)-azetidin-2-yl]-8-fluoro-6,7-dihydro-5H-cyclopenta[f][1,3]benzoxazol-6-yl]methyl]-2-oxo-1-oxa-3,8-diazaspiro[4.5]decan-3-yl]-4H-pyrazino[2,3-b][1,4]oxazin-3-one], the “Escherichia coli growth inhibition MIC” value turned out to be 0.125 µg/mL.
With `C[C@H](N)Cn1cnc2c(F)c3c(c(F)c21)CC(CN1CCC2(CC1)CN(c1cnc4c(n1)NC(=O)CO4)C(=O)O2)C3` (stereo partly drawn) [Example 129, 6-[8-[[1-[(2S)-2-aminopropyl]-4,8-difluoro-6,7-dihydro-5H-cyclopenta[f]benzimidazol-6-yl]methyl]-2-oxo-1-oxa-3,8-diazaspiro[4.5]decan-3-yl]-4H-pyrazino[2,3-b][1,4]oxazin-3-one; formic acid], the “Escherichia coli growth inhibition MIC” value was 0.25 µg/mL.
Turning to `N[C@H]1COC[C@@H]1c1nc2cc3c(c(F)c2o1)CC(CN1CCC2(CC1)CN(c1cnc4c(n1)NC(=O)CO4)C(=O)O2)C3` (stereo partly drawn) [Example 139, 6-[8-[[2-[(3R,4R)-4-Aminotetrahydrofuran-3-yl]-8-fluoro-6,7-dihydro-5H-cyclopenta[f][1,3]benzoxazol-6-yl]methyl]-2-oxo-1-oxa-3,8-diazaspiro[4.5]decan-3-yl]-4H-pyrazino[2,3-b][1,4]oxazin-3-one], the “Escherichia coli growth inhibition MIC” value worked out at 1 µg/mL.
Same read-out and setting: the figure for `O=C1COc2ncc(N3CC4(CCN(CC5Cc6cc7nc([C@H]8CCN8)oc7c(F)c6C5)CC4)OC3=O)nc2N1` (stereo partly drawn) [Example 140, 6-[8-[[2-[(2R)-azetidin-2-yl]-8-fluoro-6,7-dihydro-5H-cyclopenta[f][1,3]benzoxazol-6-yl]methyl]-2-oxo-1-oxa-3,8-diazaspiro[4.5]decan-3-yl]-4H-pyrazino[2,3-b][1,4]oxazin-3-one] is 0.25 µg/mL; for `O=C1COc2ncc(N3CC4(CCN(CC5Cc6cc7nc([C@@H]8C[C@@H](O)CN8)oc7c(F)c6C5)CC4)OC3=O)nc2N1` (stereo partly drawn) [Example 142, 6-[8-[[8-Fluoro-2-[(2S,4R)-4-hydroxypyrrolidin-2-yl]-6,7-dihydro-5H-cyclopenta[f][1,3]benzoxazol-6-yl]methyl]-2-oxo-1-oxa-3,8-diazaspiro[4.5]decan-3-yl]-4H-pyrazino[2,3-b][1,4]oxazin-3-one] it is 0.5 µg/mL; for `N[C@@H](CO)c1nc2cc3c(c(F)c2o1)CC(CN1CCC2(CC1)CN(c1cnc4c(n1)NC(=O)CO4)C(=O)O2)C3` (stereo partly drawn) [Example 144, 6-[8-[[2-[(1S)-1-Amino-2-hydroxy-ethyl]-8-fluoro-6,7-dihydro-5H-cyclopenta[f][1,3]benzoxazol-6-yl]methyl]-2-oxo-1-oxa-3,8-diazaspiro[4.5]decan-3-yl]-4H-pyrazino[2,3-b][1,4]oxazin-3-one] it is 0.25 µg/mL.
Turning to `CN[C@@H](CO)c1nc2cc3c(c(F)c2o1)CC(CN1CCC2(CC1)CN(c1cnc4c(n1)NC(=O)CO4)C(=O)O2)C3` (stereo partly drawn) [Example 146, 6-[8-[[8-Fluoro-2-[(1S)-2-hydroxy-1-(methylamino)ethyl]-6,7-dihydro-5H-cyclopenta[f][1,3]benzoxazol-6-yl]methyl]-2-oxo-1-oxa-3,8-diazaspiro[4.5]decan-3-yl]-4H-pyrazino[2,3-b][1,4]oxazin-3-one], the “Escherichia coli growth inhibition MIC” value was found to be 0.5 µg/mL.
With `O=C1COc2ccc(N3CC4(CCN(CC5Cc6cc7nc([C@@H]8C[C@@H](O)CN8)oc7c(F)c6C5)CC4)OC3=O)nc2N1` (stereo partly drawn) [Example 148, 6-[8-[[8-Fluoro-2-[(2S,4R)-4-hydroxypyrrolidin-2-yl]-6,7-dihydro-5H-cyclopenta[f][1,3]benzoxazol-6-yl]methyl]-2-oxo-1-oxa-3,8-diazaspiro[4.5]decan-3-yl]-4H-pyrido[3,2-b][1,4]oxazin-3-one], the “Escherichia coli growth inhibition MIC” value is 1 µg/mL.

For the origin of these results see patent US20240252506A1 (Hoffmann-La Roche Inc., priority 2021, published 2024).
